Columns and labels:
Format in all cases: biochemical
[1] = target: T1, MMP2 (Homo sapiens, UniProt P08253); assay: Fluorimetric enzymatic test, MMP2; details: full enzyme, read-out: IC50MMP2 (full enzyme)
T1 construct: in full-length form in the case of MMP2
T1 sequence (P08253 110-660): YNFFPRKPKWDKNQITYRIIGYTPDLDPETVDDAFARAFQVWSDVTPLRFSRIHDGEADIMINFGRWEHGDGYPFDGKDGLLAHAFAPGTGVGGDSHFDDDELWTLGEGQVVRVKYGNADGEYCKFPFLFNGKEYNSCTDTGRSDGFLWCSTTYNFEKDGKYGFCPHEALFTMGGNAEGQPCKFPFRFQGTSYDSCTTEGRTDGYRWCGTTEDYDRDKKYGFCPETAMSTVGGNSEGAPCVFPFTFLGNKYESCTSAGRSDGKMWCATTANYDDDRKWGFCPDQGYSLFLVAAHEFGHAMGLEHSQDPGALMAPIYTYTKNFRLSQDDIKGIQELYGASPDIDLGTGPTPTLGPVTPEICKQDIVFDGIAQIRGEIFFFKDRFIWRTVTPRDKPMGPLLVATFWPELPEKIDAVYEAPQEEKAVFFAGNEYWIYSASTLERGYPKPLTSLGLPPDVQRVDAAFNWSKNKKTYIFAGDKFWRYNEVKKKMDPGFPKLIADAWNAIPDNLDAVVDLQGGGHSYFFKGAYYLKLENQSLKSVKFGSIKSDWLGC
Description: (§1) Determination of the modulatory activity on the proteolytic action of the various MMPs tested (MMP1, 2, 3, 8, 9, 12, 13 and 14) using the compounds of formula (I) according to the present invention was performed via fluorometry on a 96-well plate.
(§2) The test compounds were dissolved in DMSO to a concentration of 5 mM or 50 mM. 5-fold or 10-fold (D5 or D10) serial dilutions of each compound were prepared so as to reach the nominal range of 5 assays on which the test was performed. Each of the dilutions was added to a well containing 150 µl of activated buffer (50 mM Tris/HCl; 0.1 M NaCl; 10 mM CaCl2; 0.05% Brij 35) together with the enzyme on which the test was performed.
(§3) After incubation for one hour at 37°C of the compound with the enzyme, 50 µl of a solution of fluorogenic substrate were added to a final concentration of between 2 and 7 µM.
(§4) The fluorometric readings were then taken using a Varian Cary Eclipse spectrofluorometer regulated on the specific wavelength for the substrate used, at time T0 and after 3 hours of incubation at 37° (T3h).

[2] = target: T2, MMP9 (Homo sapiens, UniProt P14780); assay: Fluorimetric enzymatic test, MMP9; details: catalytic domain
T2 construct: in the form of the catalytic domains alone for the other MMPs
Description: as §1, §2
(§5) The concentration of the enzyme [in full-length form in the case of MMP2; in the form of the catalytic domains alone for the other MMPs] ranged between 0.5 nM and 3 nM based on the activity of the enzyme on the fluorogenic substrate used (7-methoxycoumarin-4-yl)-Pro-Leu-Gly-Leu-DPA-Ala-Arg-NH2 (MCA-1) for MMP 1, 2, 3, 8, 9, 12 and 14) and MCA-Pro-(L-cyclohexylalanine)-Gly-(L-norvaline)-His-Ala-3-(2,4-dinitrophenyl)-L-2,3-diaminopropionyl)-NH2 for MMP13) (Knight et al. 1992. FEBS Lett. 296, 263; Knauper et al. 1996, J. Biol. Chem. 271, 1544).
as §3, §4

[3] = target: T3, MMP1 (Homo sapiens, UniProt P03956); assay: Fluorimetric enzymatic test, MMP1; details: for IC50: catalytic domain, fluorimetric test
T3 construct: in the form of the catalytic domains alone for the other MMPs
T3 sequence (P03956 98-276 limits assumed): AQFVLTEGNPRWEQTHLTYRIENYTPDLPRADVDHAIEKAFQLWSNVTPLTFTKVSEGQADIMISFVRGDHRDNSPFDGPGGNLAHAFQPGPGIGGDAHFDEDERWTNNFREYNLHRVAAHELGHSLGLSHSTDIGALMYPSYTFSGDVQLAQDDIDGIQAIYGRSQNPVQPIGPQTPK
Description: as §1, §2, §3, §4

[4] = target: T4, MMP3 (Homo sapiens, UniProt P08254); assay: Fluorimetric enzymatic test, MMP3; details: for IC50: catalytic domain, fluorimetric test
T4 construct: in the form of the catalytic domains alone for the other MMPs
Description: as §1, §2, §3, §4

[5] = target: T5, MMP13 (Homo sapiens, UniProt P45452); assay: Fluorimetric enzymatic test, MMP13; details: catalytic domain
T5 construct: in the form of the catalytic domains alone for the other MMPs
Description: as §1, §2, §3, §4

[6] = target: T6, MMP8 (Homo sapiens, UniProt P22894); assay: Fluorimetric enzymatic test, MMP8; details: catalytic domain
T6 construct: in the form of the catalytic domains alone for the other MMPs
Description: as §1, §2, §5, §3, §4

[7] = target: T7, MMP12 (Homo sapiens, UniProt P39900); assay: Fluorimetric enzymatic test, MMP12; details: catalytic domain
T7 construct: in the form of the catalytic domains alone for the other MMPs
Description: as §1, §2, §5, §3, §4

[8] = target: T8, MMP14 (Homo sapiens, UniProt P50281); assay: Fluorimetric enzymatic test, MMP14; details: for IC50: catalytic domain, fluorimetric test
T8 construct: in the form of the catalytic domains alone for the other MMPs
Description: as §1, §2, §5, §3, §4

[9] = relative to the limit value of 0.3 nM for MMP2

T4 sequence (P08254 100-272 limits assumed, species assumed): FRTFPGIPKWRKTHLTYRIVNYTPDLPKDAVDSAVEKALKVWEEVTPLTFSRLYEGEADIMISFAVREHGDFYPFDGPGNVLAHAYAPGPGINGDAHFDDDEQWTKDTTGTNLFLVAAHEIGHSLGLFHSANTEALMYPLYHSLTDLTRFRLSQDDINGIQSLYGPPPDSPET
T7 sequence (P39900 106-263 limits assumed, species assumed): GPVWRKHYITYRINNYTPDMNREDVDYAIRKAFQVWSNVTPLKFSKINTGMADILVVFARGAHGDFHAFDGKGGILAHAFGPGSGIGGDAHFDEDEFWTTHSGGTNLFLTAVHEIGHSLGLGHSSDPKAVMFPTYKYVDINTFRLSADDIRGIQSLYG
T6 sequence (P22894 100-262 limits assumed, species assumed): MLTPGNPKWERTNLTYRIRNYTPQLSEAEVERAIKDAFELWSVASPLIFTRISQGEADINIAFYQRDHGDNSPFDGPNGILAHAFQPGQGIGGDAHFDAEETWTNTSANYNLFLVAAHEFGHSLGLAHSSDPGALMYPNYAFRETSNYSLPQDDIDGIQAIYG
T2 sequence (P14780 107-444 limits assumed, species assumed): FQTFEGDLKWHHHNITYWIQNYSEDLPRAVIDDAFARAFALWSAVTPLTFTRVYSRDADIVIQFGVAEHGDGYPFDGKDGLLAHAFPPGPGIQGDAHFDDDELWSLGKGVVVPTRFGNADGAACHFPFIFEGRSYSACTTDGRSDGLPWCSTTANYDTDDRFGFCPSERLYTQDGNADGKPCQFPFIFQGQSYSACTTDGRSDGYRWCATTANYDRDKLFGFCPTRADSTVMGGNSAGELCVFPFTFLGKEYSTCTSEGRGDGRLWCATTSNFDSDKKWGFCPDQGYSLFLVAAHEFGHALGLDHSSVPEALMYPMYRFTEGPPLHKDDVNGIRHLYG

Structure (SMILES) | IC50 [1] | IC50 [2] | IC50 [3] | IC50 [4] | IC50 [5] | IC50 [6] | IC50 [7] | IC50 [8] | decrease in inhibitory power with respect to MMP1 [3, 9] | decrease in inhibitory power with respect to MMP3 [4, 9] | decrease in inhibitory power with respect to MMP14 [8, 9]
O=C(O)C1c2[nH]c3ccccc3c2CCN1S(=O)(=O)c1ccc(-c2ccccc2)cc1 (racemic) [Compound 3, (1RS)-2-(4'-phenylbenzenesulfonyl)-1,2,3,4-tetrahydro-norarmano-1-carboxylic acid] | 600 ± 800 nM | 7500 ± 5000 nM | > 50000 nM | 11000 ± 1000 nM | 160 ± 50 nM | 3000 ± 700 nM | 300 ± 50 nM | 30000 ± 2000 nM | – | – | –
O=C(NO)C1c2[nH]c3ccccc3c2CCN1S(=O)(=O)c1ccc(-c2ccccc2)cc1 (racemic) [Compound 11, (1R,S)-2-(4'biphenylsulfonyl)-1,2,3,4-tetrahydro-norarmano-N-hydroxy-1-carboxamide] | 14 ± 3 nM | 15 ± 2 nM | 3000 ± 1000 nM | 600 nM | 3 nM | 4.7 ± 0.5 nM | 4 ± 1.6 nM | – | – | – | –
O=C(O)C1c2[nH]c3ccccc3c2CCN1S(=O)(=O)c1ccc(Oc2ccc(Cl)cc2)cc1 (racemic) [Compound 8, (1 RS)-2-(4"-chloro-4'-phenoxybenzenesulfonyl)-1,2,3,4-tetrahydronorarmano-1-carboxylic acid] | 10000 ± 2000 nM | 15000 ± 4000 nM | > 50000 nM | > 50000 nM | 800 ± 200 nM | 10000 ± 1000 nM | 2000 ± 200 nM | > 50000 nM | – | – | –
O=C(NO)C1c2[nH]c3ccccc3c2CCN1S(=O)(=O)c1ccc(Oc2ccc(F)cc2)cc1 (racemic) [Compound 14, (1RS)-2-(4"-fluoro-4'-phenoxybenzenesulfonyl)-1,2,3,4-tetrahydronorarmano-N-hydroxy-1-carboxamide] | < 0.3 nM | < 0.5 nM | 340 ± 100 nM | 600 ± 200 nM | < 0.5 nM | < 0.5 nM | – | 3.2 ± 0.1 nM | – | – | –
O=C(O)C1c2[nH]c3ccccc3c2CCN1S(=O)(=O)c1ccc2ccccc2c1 (racemic) [Compound 6, (1RS)-2-(2-naphthylsulfonyl)-1,2,3,4-tetrahydro-norarmano-1-carboxylic acid] | 2500 ± 100 nM | 62000 ± 5000 nM | – | – | – | – | – | – | – | – | –
CC1(C)SCCN(S(=O)(=O)c2ccc(Oc3ccncc3)cc2)[C@H]1C(=O)NO [prinomastat, (3S)-N-hydroxy-4-(4-(pyrid-4-yloxyl)benzenesulfonyl)-2,2-dimethyltetrahydro-2H-1,4-thiazine-3-carboxamide, reference compound] | – | – | – | – | – | < 0.5 nM | < 0.5 nM | – | – | – | –
CCCCOc1ccc(S(=O)(=O)N2CCc3c([nH]c4ccccc34)C2C(=O)NO)cc1 (racemic) [Compound 10, (1R,S)-2-(4'-butoxybenzenesulfonyl)-1,2,3,4-tetrahydro-norarmano-N-hydroxy-1-carboxamide] | 7 ± 2.5 nM | 6 ± 2 nM | 20000 ± 2000 nM | 4000 ± 1500 nM | 2000 ± 500 nM | < 0.5 nM | < 0.5 nM | 50 ± 11 nM | – | – | –
COc1ccc2[nH]c3c(c2c1)CCNC3C(=O)O (stereo not shown) [6-methoxy-1,2,3,4-tetrahydronorarmano-1-carboxylic acid, reference compound] | – | – | – | – | – | 200 nM | – | – | – | – | –
COc1ccc(Oc2ccc(S(=O)(=O)N3CCc4c([nH]c5ccccc45)C3C(=O)O)cc2)cc1 (racemic) [Compound 2, (1RS)-2-(4"-methoxy-4'-phenoxybenzenesulfonyl)-1,2,3,4-tetrahydronorarmano-1-carboxylic acid] | 600 ± 100 nM | 2200 ± 800 nM | > 50000 nM | > 50000 nM | 15000 ± 5000 nM | 1600 ± 200 nM | 500 ± 100 nM | > 50000 nM | – | – | –
O=C(O)C1c2[nH]c3ccccc3c2CCN1S(=O)(=O)c1ccc(Oc2ccc(F)cc2)cc1 (racemic) [Compound 9, (1 RS)-2-(4"-fluoro-4'phenoxybenzenesulfonyl)-1,2,3,4-tetrahydronorarmano-1-carboxylic acid] | 28000 ± 1000 nM | 4000 ± 1000 nM | > 50000 nM | > 50000 nM | > 50000 nM | 21000 ± 2000 nM | 2000 ± 300 nM | > 50000 nM | – | – | –
COc1ccc(Oc2ccc(S(=O)(=O)N3CCc4c([nH]c5ccccc45)C3C(=O)NO)cc2)cc1 (racemic) [Compound 12, (1 RS)-2-(4"-methoxy-4'-phenoxybenzenesulfonyl)-1,2,3,4-tetrahydronorarmano-N-hydroxy-1-carboxamide] | < 0.3 nM | < 0.5 nM | 350 ± 100 nM | 30000 ± 10000 nM | < 0.5 nM | < 0.5 nM | < 0.5 nM | 5 ± 1 nM | – | – | –
O=C(NO)C1c2[nH]c3ccccc3c2CCN1S(=O)(=O)c1ccc(Oc2ccc(Cl)cc2)cc1 (racemic) [Compound 13, (1 RS)-2-(4"-chloro-4'-phenoxybenzenesulfonyl)-1,2,3,4-tetrahydronorarmano-N-hydroxy-1-carboxamide] | < 0.3 nM | – | > 50000 nM | – | – | – | – | 30 nM | about 16 000 fold | ~830 fold | ~100 fold
Cc1ccc(S(=O)(=O)N2CCc3c([nH]c4ccccc34)C2C(=O)O)cc1 (racemic) [Compound 5, (1RS)-2-(4-methylbenzenesulfonyl)-1,2,3,4-tetrahydro-norarmano-1-carboxylic acid] | 15000 nM | 141000 nM | – | – | – | – | – | – | – | – | –
CC(C)(C)c1ccc(S(=O)(=O)N2CCc3c([nH]c4ccccc34)C2C(=O)O)cc1 (racemic) [Compound 7, (1 RS)-2-(4'-t-butylbenzenesulfonyl)-1,2,3,4-tetrahydro-norarmano-1-carboxylic acid] | > 125000 nM | – | – | – | – | – | – | – | – | – | –
CCCCOc1ccc(S(=O)(=O)N2CCc3c([nH]c4ccccc34)C2C(=O)O)cc1 (racemic) [Compound 4, (1 RS)-2-(4'-butoxybenzenesulfonyl)-1,2,3,4-tetrahydro-norarmano-1-carboxylic acid] | 680 ± 200 nM | 24000 ± 1000 nM | > 50000 nM | – | 2000 ± 500 nM | 30000 nM | 4500 ± 1000 nM | – | – | – | –

Reference: patent EP2170885B1, “BETA-CARBOLINE ARYLSULFONAMIDES, METHOD FOR PREPARING THEM AND COMPOSITION COMPRISING THEM” (C4T S.C. a.r.l., priority 2007, dated 2008)
